Data taken from patent publication US20230055237A1, “COMPOUNDS AND METHODS FOR THE TREATMENT OF CYSTIC FIBROSIS” (Flatley Discovery Lab, LLC, priority 2019, published 2023).

Target: T1, CFTR (Homo sapiens, UniProt P13569, DEL508-508)
T1 construct: Primary CF airway epithelial cells were obtained from the UNC Cystic Fibrosis Tissue Procurement and Cell Culture Core; host or cells: primary CF airway epithelial cells, differentiated at the air-liquid interface
Test: Equivalent current assay in primary CF airway epithelial cells (NAUC, combination with 1st site corrector FDL169 or VX-809)
Format: cell-based
Conditions: 37° C., 24 h; for Nauc @ 10 μM: test compound 10 μM in combination with 1st site corrector VX-809 (3 μM)
Description: Primary CF airway epithelial cells were obtained from the UNC Cystic Fibrosis Tissue Procurement and Cell Culture Core. The cells are grown at 37° C. in a Heracell 150i incubator using growth media (BEGM, Fischer). […] Two days before the Ussing assay the mucus on the apical surface of the cells was aspirated after incubating with 200 μL of differentiation media for at least thirty (30) minutes. One day before the Ussing assay test compounds were added to the basolateral surface of the cells at various test concentrations dissolved in DMSO. Duplicate wells were prepared giving a n=3 or n=4 protocol.
Cells were treated for 24 hours with various combinations and concentrations of the test articles, reference standard (3 μM VX809 or 3 μM FDL169, positive control). Compounds stock solutions were prepared in DMSO and diluted 1/1000 into ALI media to their final assay concentration. Cells were treated with combination solutions (2 mL of each dilution) and incubated at 37° C. for 24 h.
For the equivalent current assay, cells on four Transwell (24-well) plates were treated. Each Transwell plate was filled with 200 μl of HBS on the apical surface and 2 ml on the basolateral surface. Plates were placed horizontally in a heated mount at 37° C., and equilibrated for several minutes. Resting current was measured for 15 min and then blocked by the apical addition of 5 μM benzamil. After 20 min, 10 μM forskolin and 1 μM VX770 were added to both the apical and basolateral side to stimulate CFTR. An increase in chloride current is seen as an upward deflection of the trace.
The raw data, current vs. time for the Ussing chamber (sampling interval: 10 s) and voltage vs. time and resistance vs. time for the equivalent current assay (sampling interval: 5 minutes) were transferred to Excel (Microsoft Office Professional, version 14.0.7106.5003) for analysis. […] This average is equivalent to the sum of the average forskolin activated and the average VX770-potentiated currents. The average current measured in vehicle (0.1% DMSO) treated cells, Iv, was subtracted from the current for the test article, ITA, or from the corrector reference standard VX809 (3 uM ISTD). For replicate measurements, the average vehicle subtracted response for the test article, was normalized to the average vehicle subtracted inhibitor response of the reference corrector VX809 (3 μM).
A second endpoint, for the equivalent current assay, evaluated was NAUC, the normalized area under the curve (AUC) measuring the response after addition of forskolin and VX770 to the time point right before the addition of the CFTR inhibitor. The AUC is effectively the average response multiplied by the duration of the response.
NAUCTA=[AUCTA−AUCV,ave]/[AUCVx809r,ave−AUCV,ave] (Equation 2).
Experiments were run with a minimum of n=4 replicates per concentration. Since the distribution for the ratio of two normal distributions is a Cauchy distribution, the median value must be used for the average and the average deviation must be used for the error of all normalized data.
E=Emin+(Emax−Emin)/(1+10^((LogEC5OS)*nH)) (Equation 3)

[1] = test compound 1 μM in combination with 1st site corrector VX-809 (3 μM)
[2] = test compound 3 μM in combination with 1st site corrector VX-809 (3 μM)
[3] = test compound 1 μM in combination with 1st site corrector FDL169 (3 μM)
[4] = test compound 3 μM in combination with 1st site corrector FDL169 (3 μM)

T1 sequence (P13569 with tags, fused parts or gaps DEL508-508): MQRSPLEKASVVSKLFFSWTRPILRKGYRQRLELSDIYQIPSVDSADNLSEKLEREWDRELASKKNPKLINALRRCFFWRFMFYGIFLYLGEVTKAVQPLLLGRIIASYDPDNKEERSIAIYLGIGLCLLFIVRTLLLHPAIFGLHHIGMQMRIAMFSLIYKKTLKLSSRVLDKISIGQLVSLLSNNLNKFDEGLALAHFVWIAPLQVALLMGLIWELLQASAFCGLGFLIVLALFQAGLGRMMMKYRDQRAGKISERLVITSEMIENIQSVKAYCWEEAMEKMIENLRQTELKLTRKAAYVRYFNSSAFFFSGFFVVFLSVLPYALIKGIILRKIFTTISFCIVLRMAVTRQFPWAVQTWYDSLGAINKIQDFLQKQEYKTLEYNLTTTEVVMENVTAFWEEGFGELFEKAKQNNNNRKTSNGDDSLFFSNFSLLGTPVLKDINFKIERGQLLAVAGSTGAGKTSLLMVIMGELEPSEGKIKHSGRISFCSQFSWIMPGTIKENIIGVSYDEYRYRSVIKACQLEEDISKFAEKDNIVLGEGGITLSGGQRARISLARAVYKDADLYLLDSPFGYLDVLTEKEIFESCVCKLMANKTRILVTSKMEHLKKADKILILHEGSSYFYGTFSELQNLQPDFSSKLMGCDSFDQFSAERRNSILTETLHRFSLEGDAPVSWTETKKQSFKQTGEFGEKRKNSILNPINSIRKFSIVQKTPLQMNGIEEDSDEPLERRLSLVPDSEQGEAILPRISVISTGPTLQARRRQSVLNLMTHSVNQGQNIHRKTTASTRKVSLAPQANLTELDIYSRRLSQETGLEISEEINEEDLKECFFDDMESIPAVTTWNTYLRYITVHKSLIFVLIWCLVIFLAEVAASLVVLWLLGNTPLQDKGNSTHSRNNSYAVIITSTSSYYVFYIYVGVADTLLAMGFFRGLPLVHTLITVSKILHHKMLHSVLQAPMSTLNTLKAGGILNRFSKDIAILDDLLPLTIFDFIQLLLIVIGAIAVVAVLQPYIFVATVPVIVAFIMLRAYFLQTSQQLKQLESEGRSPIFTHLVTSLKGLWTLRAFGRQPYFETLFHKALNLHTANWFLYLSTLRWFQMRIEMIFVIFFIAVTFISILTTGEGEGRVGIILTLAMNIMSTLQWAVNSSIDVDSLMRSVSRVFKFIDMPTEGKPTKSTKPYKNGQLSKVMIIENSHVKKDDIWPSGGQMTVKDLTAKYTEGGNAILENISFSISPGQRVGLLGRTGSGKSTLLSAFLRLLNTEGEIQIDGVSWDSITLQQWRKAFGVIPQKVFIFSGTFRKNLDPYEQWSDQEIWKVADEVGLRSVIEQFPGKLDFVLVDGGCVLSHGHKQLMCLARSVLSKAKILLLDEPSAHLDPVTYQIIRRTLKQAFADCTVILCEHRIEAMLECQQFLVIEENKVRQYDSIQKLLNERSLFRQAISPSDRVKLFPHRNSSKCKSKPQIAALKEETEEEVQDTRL

SMILES: O=C(Nc1cc(Cl)cc(Cl)c1)[C@H]1[C@H]2CCCN2[C@]2(C(=O)Nc3c(Cl)cc(Cl)cc32)[C@H]1C(=O)NN1CCOCC1 (relative stereo) [Example 243, (1′R,2′S,7a′R)-5,7-dichloro-N1′-(3,5-dichlorophenyl)-N2′-morpholino-2-oxo-1′,2′,5′,6′,7′,7a′-hexahydrospiro dicarboxamide]
- Nauc @ 1 μM [1]: + (NAUC “+” refers to an observed NAUC <140% of positive control)
- Nauc @ 3 μM [2]: + (NAUC “+” refers to an observed NAUC <140% of positive control)

SMILES: O=C(Nc1cncc(C(F)(F)F)n1)C1C2C[C@@](O)(C(F)(F)F)CN2C2(C(=O)Nc3c(Cl)cc(Cl)cc32)C1C(=O)O (single isomer, unassigned) [Example 75.a]
- Nauc @ 10 μM: + (NAUC “+” refers to an observed NAUC <140% of positive control)

SMILES: COc1cc(C(F)(F)F)cc(NC(=O)C2C3CC(F)(F)CN3C3(C(=O)Nc4c(Cl)cc(Cl)cc43)C2C(=O)O)n1 (single isomer, unassigned) [Example 80.7a.1, 5,7-dichloro-6′,6′-difluoro-1′-((6-methoxy-4-(trifluoromethyl)pyridin-2-yl)carbamoyl)-2-oxo-1′,2′,5′,6′,7′,7a′-hexahydrospiro[indoline-3,3′-pyrrolizine]-2′-carboxylic acid]
- Nauc @ 10 μM: + (NAUC “+” refers to an observed NAUC <140% of positive control)

SMILES: COc1cc(C(F)(F)F)cc(NC(=O)C2C3CC(F)(F)CN3C3(C(=O)Nc4c(Cl)cc(Cl)cc43)C2C(=O)O)n1 (single isomer, unassigned) [Example 80.7a.2, 5,7-dichloro-6′,6′-difluoro-1′-((6-methoxy-4-(trifluoromethyl)pyridin-2-yl)carbamoyl)-2-oxo-1′,2′,5′,6′,7′,7a′-hexahydrospiro[indoline-3,3′-pyrrolizine]-2′-carboxylic acid]
- Nauc @ 1 μM [1]: + (NAUC “+” refers to an observed NAUC <140% of positive control)
- Nauc @ 3 μM [2]: +++ (NAUC “+++” refers to an observed NAUC>170% of positive control)
- Nauc @ 10 μM: +++ (NAUC “+++” refers to an observed NAUC>170% of positive control)

SMILES: COc1cc(C(F)(F)F)cc(NC(=O)C2C3CC(F)(F)CN3C3(C(=O)Nc4c(Cl)cc(Cl)cc43)C2C(=O)O)n1 (single isomer, unassigned) [Example 80.7b.1, 5,7-dichloro-6′,6′-difluoro-1′-((6-methoxy-4-(trifluoromethyl)pyridin-2-yl)carbamoyl)-2-oxo-1′,2′,5′,6′,7′,7a′-hexahydrospiro[indoline-3,3′-pyrrolizine]-2′-carboxylic acid]
- Nauc @ 10 μM: + (NAUC “+” refers to an observed NAUC <140% of positive control)

SMILES: COc1cc(C(F)(F)F)cc(NC(=O)C2C3CC(F)(F)CN3C3(C(=O)Nc4c(Cl)cc(Cl)cc43)C2C(=O)O)n1 (single isomer, unassigned) [Example 80.7b.2, 5,7-dichloro-6′,6′-difluoro-1′-((6-methoxy-4-(trifluoromethyl)pyridin-2-yl)carbamoyl)-2-oxo-1′,2′,5′,6′,7′,7a′-hexahydrospiro[indoline-3,3′-pyrrolizine]-2′-carboxylic acid]
- Nauc @ 10 μM: + (NAUC “+” refers to an observed NAUC <140% of positive control)

SMILES: O=C1C2C(C(F)(F)F)NC3(C(=O)Nc4c(Cl)cc(Cl)cc43)C2C(=O)N1c1cc(Cl)cc(Cl)c1 (single isomer, unassigned) [Example 81, 5,7-dichloro-4′4(3,5-dichlorophenyl)carbamoyl)-1-methyl-2-oxo-5′-(trifluoromethyl)spiro[indoline-3,2′-pyrrolidinel-3′-carboxylic acid]
- Nauc @ 1 μM [1]: + (NAUC “+” refers to an observed NAUC <140% of positive control)
- Nauc @ 3 μM [2]: ++ (NAUC “++” refers to an observed NAUC 170-140% of positive control)
- Nauc @ 10 μM: + (NAUC “+” refers to an observed NAUC <140% of positive control)

SMILES: CC(C)(C)CN(C(=O)[C@H]1[C@@H](C(=O)O)C2(C(=O)Nc3c(Cl)cc(Cl)cc32)N2CCC[C@@H]12)c1cc(Cl)cc(Cl)c1 (single isomer, unassigned) [Example 82.6a, (1′R,2′S,7a′R)-5,7-dichloro-1-((3,5-dichlorophenyl)(neopentyl)carbamoyl)-2-oxo-1′,2′,5′,6′,7′,7a′-hexahydrospiro[indoline-3,3′-pyrrolizine]-2′-carboxylic acid]
- Nauc @ 1 μM [3]: +++ (NAUC “+++” refers to an observed NAUC>170% of positive control)
- Nauc @ 3 μM [4]: ++ (NAUC “++” refers to an observed NAUC 170-140% of positive control)

SMILES: CC(C)(C)CN(C(=O)[C@H]1[C@H]2CCCN2C2(C(=O)Nc3c(Cl)cc(Cl)cc32)[C@H]1C(=O)O)c1cc(Cl)cc(Cl)c1 (single isomer, unassigned) [Example 82.6b, (1′S,2′R,7a′S)-5,7-dichloro-1-((3,5-dichlorophenyl)(neopentyl)carbamoyl)-2-oxo-1′,2′,5′,6′,7′,7a′-hexahydrospiro[indoline-3,3′-pyrrolizine]-2′-carboxylic acid]
- Nauc @ 1 μM [3]: ++ (NAUC “++” refers to an observed NAUC 170-140% of positive control)
- Nauc @ 3 μM [4]: + (NAUC “+” refers to an observed NAUC <140% of positive control)

SMILES: O=C(O)[C@H]1[C@@H](C(=O)N(CC2CC2)c2cc(Cl)cc(Cl)c2)[C@H]2CCCN2C12C(=O)Nc1c(Cl)cc(Cl)cc12 (single isomer, unassigned) [Example 83b]
- Nauc @ 1 μM [3]: +++ (NAUC “+++” refers to an observed NAUC>170% of positive control)
- Nauc @ 3 μM [4]: +++ (NAUC “+++” refers to an observed NAUC>170% of positive control)

SMILES: O=C(O)[C@H]1[C@@H](C(=O)N(CC2CCCC2)c2cc(Cl)cc(Cl)c2)[C@H]2CCCN2C12C(=O)Nc1c(Cl)cc(Cl)cc12 (single isomer, unassigned) [Example 84b]
- Nauc @ 1 μM [3]: +++ (NAUC “+++” refers to an observed NAUC>170% of positive control)
- Nauc @ 3 μM [4]: + (NAUC “+” refers to an observed NAUC <140% of positive control)

SMILES: CN(O)C(=O)C1C(C(=O)Nc2cc(Cl)cc(Cl)c2)C2CC(F)(F)CN2C12C(=O)Nc1c(Cl)cc(Cl)cc12 (single isomer, unassigned) [Example 225a, 5,7-dichloro-N1′-(3,5-dichlorophenyl)-6′,6′-difluoro-N2′-hydroxy-N2′-methyl-2-oxo-1′,2′,5′,6′,7′,7a′-hexahydrospiro[indoline-3,3′-pyrrolizine]-1′,2′-dicarboxamide]
- Nauc @ 1 μM [1]: + (NAUC “+” refers to an observed NAUC <140% of positive control)
- Nauc @ 3 μM [2]: + (NAUC “+” refers to an observed NAUC <140% of positive control)
- Nauc @ 10 μM: +++ (NAUC “+++” refers to an observed NAUC>170% of positive control)

SMILES: CN(O)C(=O)C1C(C(=O)Nc2cc(Cl)cc(Cl)c2)C2CC(F)(F)CN2C12C(=O)Nc1c(Cl)cc(Cl)cc12 (single isomer, unassigned) [Example 225b, 5,7-dichloro-N1′-(3,5-dichlorophenyl)-6′,6′-difluoro-N2′-hydroxy-N2′-methyl-2-oxo-1′,2′,5′,6′,7′,7a′-hexahydrospiro[indoline-3,3′-pyrrolizine]-1′,2′-dicarboxamide]
- Nauc @ 1 μM [1]: + (NAUC “+” refers to an observed NAUC <140% of positive control)
- Nauc @ 3 μM [2]: +++ (NAUC “+++” refers to an observed NAUC>170% of positive control)
- Nauc @ 10 μM: +++ (NAUC “+++” refers to an observed NAUC>170% of positive control)

SMILES: O=C(Nc1cc(Cl)cc(Cl)c1)C1C2CC(F)(F)CN2C2(C(=O)Nc3c(Cl)cc(Cl)cc32)C1C(=O)NO (single isomer, unassigned) [Example 226a, 5,7-dichloro-N1′-(3,5-dichlorophenyl)-6′,6′-difluoro-N2′-hydroxy-2-oxo-1′,2′,5′,6′,7′,7a′-hexahydrospiro[indoline-3,3′-pyrrolizine]-1′,2′-dicarboxamide]
- Nauc @ 1 μM [1]: ++ (NAUC “++” refers to an observed NAUC 170-140% of positive control)
- Nauc @ 3 μM [2]: ++ (NAUC “++” refers to an observed NAUC 170-140% of positive control)
- Nauc @ 10 μM: +++ (NAUC “+++” refers to an observed NAUC>170% of positive control)
